Tested on: eNOS
Experiment: eNOS protein abundance in HUVECs by immunochemical methods (Example 2)
Type: cell-based, human
Settings: for Fold difference eNOS protein abundance (mean ± sd): (LA-419 5 μM)/(control); for eNOS protein abundance Fold difference (mean ± sd): LA-419 5 μM / control; for eNOS protein abundance Net increase (mean ± sd): avg 5 μM LA-419 − avg Cntl
Source text: eNOS Activity and Protein Abundance Measurements
Using immunochemical methods, there was no change in any condition in relation to eNOS protein abundance, Tables ss-L1.

Compound: CC(=O)SC1COC2C(O[N+](=O)[O-])COC12 (stereo not drawn) [LA-419, S-(6-Nitro-oxi-hexahydro-furo[3,2-b]furan-3-1-il)thioacetate]
- Fold difference eNOS protein abundance (mean ± sd) (Intron 4 b/a, a/a, c/c, n=14): 1.00 (0.09)
- Fold difference eNOS protein abundance (mean ± sd) (Intron 4 b/a, n=10): 1.01 (0.10)
- Fold difference eNOS protein abundance (mean ± sd) (Intron 4 b/b, b/a, c/c, n=42): 0.99 (0.08)
- Fold difference eNOS protein abundance (mean ± sd) (Intron 4 b/b, n=31): 0.98 (0.07)
- Fold difference eNOS protein abundance (mean ± sd) (Intron 4 c/c, n=1): 0.94 (0)
- Fold difference eNOS protein abundance (mean ± sd) (T786C T/T & T/C, n=45): 0.99 (0.08)
- Fold difference eNOS protein abundance (mean ± sd) (T-786C C/C, n=4): 0.93 (0.06)
- Fold difference eNOS protein abundance (mean ± sd) (T-786C T/C & C/C, n=27): 0.99 (0.09)
- Fold difference eNOS protein abundance (mean ± sd) (T-786C T/C, n=23): 1.00 (0.09)
- Fold difference eNOS protein abundance (mean ± sd) (T-786C T/T, n=22): 0.99 (0.06)
- eNOS protein abundance Fold difference (mean ± sd) (Caucasian, G894T + T-786C variant G/G + T/C (n=3), Table K): 1.10 (0.05)
- eNOS protein abundance Fold difference (mean ± sd) (Caucasian, G894T + T-786C variant G/G + T/T (n=7), reference group, Table K): 1.04 (0.04)
- eNOS protein abundance Fold difference (mean ± sd) (Caucasian, G894T + T-786C variant G/T + T/C (n=10), Table K): 1.00 (0.08)
- eNOS protein abundance Fold difference (mean ± sd) (Caucasian, G894T + T-786C variant G/T + T/T (n=3), Table K): 1.02 (0.09)
- eNOS protein abundance Fold difference (mean ± sd) (Caucasian, G894T + T-786C variant T/T + T/C (n=2), Table K): 1.04 (0.01)
- eNOS protein abundance Fold difference (mean ± sd) (Caucasian, G894T variant G/G (n=10), major allele homozygotes, Table J): 1.06 (0.05)
- eNOS protein abundance Fold difference (mean ± sd) (Caucasian, G894T variant G/G (n=10), Table I): 1.06 (0.05)
- eNOS protein abundance Fold difference (mean ± sd) (Caucasian, G894T variant G/T & T/T (n=16), minor allele carriers, Table J): 1.01 (0.07)
- eNOS protein abundance Fold difference (mean ± sd) (Caucasian, G894T variant G/T (n=13), Table I): 1.00 (0.08)
- eNOS protein abundance Fold difference (mean ± sd) (Caucasian, G894T variant T/T (n=3), Table I): 1.03 (0.02)
- eNOS protein abundance Fold difference (mean ± sd) (Caucasian, Genotype Combination = all minor allele carriers (n=19), Table L): 1.02 (0.08)
- eNOS protein abundance Fold difference (mean ± sd) (Caucasian, Genotype Reference = G/G + T/T (n=7), Table L): 1.04 (0.04)
- eNOS protein abundance Fold difference (mean ± sd) (Caucasian, Intron 4 variant b/a & a/a (n=6), minor allele carriers, Table J): 1.08 (0.06)
- eNOS protein abundance Fold difference (mean ± sd) (Caucasian, Intron 4 variant b/a (n=5), Table I): 1.07 (0.06)
- eNOS protein abundance Fold difference (mean ± sd) (Caucasian, Intron 4 variant b/b (n=18), major allele homozygotes, Table J): 1.00 (0.06)
- eNOS protein abundance Fold difference (mean ± sd) (Caucasian, Intron 4 variant b/b (n=18), Table I): 1.00 (0.06)
- eNOS protein abundance Fold difference (mean ± sd) (Caucasian, T-786C variant T/C & C/C (n=16), minor allele carriers, Table J): 1.02 (0.08)
- eNOS protein abundance Fold difference (mean ± sd) (Caucasian, T-786C variant T/C (n=15), Table I): 1.02 (0.08)
- eNOS protein abundance Fold difference (mean ± sd) (Caucasian, T-786C variant T/T (n=10), major allele homozygotes, Table J): 1.03 (0.06)
- eNOS protein abundance Fold difference (mean ± sd) (Caucasian, T-786C variant T/T (n=10), Table I): 1.03 (0.06)
- eNOS protein abundance Fold difference (mean ± sd) (G894T + T-786C variant T/T + C/C (n=1), Table K): 1.01 (0)
- eNOS protein abundance Fold difference (mean ± sd) (Intron 4 variant a/a (n=1), Table I): 1.14 (0)
- eNOS protein abundance Fold difference (mean ± sd) (T-786C variant C/C (n=1), Table I): 1.01 (0)
- eNOS protein abundance (any condition, Tables ss-L1): no change
- eNOS protein abundance Net increase (mean ± sd) (Combination of all G894T + T786C genotypes but G/G + T/T, n=31): −0.12 (0.53) pg/ug
- eNOS protein abundance Net increase (mean ± sd) (G894T + T786C G/G + T/C, n=8): −0.17 (0.77) pg/ug
- eNOS protein abundance Net increase (mean ± sd) (G894T + T786C G/G + T/T, n=18): −0.09 (0.35) pg/ug
- eNOS protein abundance Net increase (mean ± sd) (G894T + T786C G/T + C/C, n=1): −0.99 (0) pg/ug
- eNOS protein abundance Net increase (mean ± sd) (G894T + T786C G/T + T/C, n=13): −0.03 (0.42) pg/ug
- eNOS protein abundance Net increase (mean ± sd) (G894T + T786C G/T + T/T, n=4): −0.03 (0.46) pg/ug
- eNOS protein abundance Net increase (mean ± sd) (G894T + T786C T/T + C/C, n=3): −0.41 (0.46) pg/ug
- eNOS protein abundance Net increase (mean ± sd) (G894T + T786C T/T + T/C, n=2): 0.17 (0.02) pg/ug
- eNOS protein abundance Net increase (mean ± sd) (G894T G/G, n=26): −0.12 (0.50) pg/ug
- eNOS protein abundance Net increase (mean ± sd) (G894T G/T & T/T, n=23): −0.10 (0.45) pg/ug
- eNOS protein abundance Net increase (mean ± sd) (G894T G/T, n=18): −0.08 (0.46) pg/ug
- eNOS protein abundance Net increase (mean ± sd) (G894T T/T, n=5): −0.18 (0.45) pg/ug
- eNOS protein abundance Net increase (mean ± sd) (Intron 4 a/a, n=3): −0.05 (0.69) pg/ug
- eNOS protein abundance Net increase (mean ± sd) (Intron 4 b/a, a/a, c/c, n=14): −0.05 (0.55) pg/ug
- eNOS protein abundance Net increase (mean ± sd) (Intron 4 b/a, n=10): −0.02 (0.56) pg/ug
- eNOS protein abundance Net increase (mean ± sd) (Intron 4 b/b, n=31): −0.14 (0.45) pg/ug
- eNOS protein abundance Net increase (mean ± sd) (Intron 4 c/c, n=1): −0.44 (0) pg/ug
- eNOS protein abundance Net increase (mean ± sd) (T786C C/C, n=4): −0.55 (0.47) pg/ug
- eNOS protein abundance Net increase (mean ± sd) (T786C T/C & C/C, n=27): −0.13 (0.55) pg/ug
- eNOS protein abundance Net increase (mean ± sd) (T786C T/C, n=23): −0.06 (0.54) pg/ug
- eNOS protein abundance Net increase (mean ± sd) (T786C T/T, n=22): −0.08 (0.36) pg/ug

— patent publication US20130131161A1, “METHODS AND COMPOSITIONS FOR CARDIOVASCULAR DISEASES AND CONDITIONS” (priority 2009, published 2013)
